Values of other authors, collected in patent US20200325234A1, “IMMUNE-BASED TREATMENT OF KRAS-VARIANT CANCER PATIENTS” (MIRA DX, INC., priority 2016, published 2020).
Read-outs that look alike come from different tables or passages of the source.

Tested on: KRAS-variant patients
[1] = KRAS-variant patients with non-small cell lung cancer (NSCLC)

Compound	response to therapy (KRAS-variant patients with ovarian or head and neck cancer)	response to therapy [1]
N.N.[Cl][Pt][Cl] [cisplatin]	resistance	–
C#Cc1cccc(Nc2ncnc3cc(OCCOC)c(OCCOC)cc23)c1 [erlotonib]	–	resistance
CNC(=O)c1cc(Oc2ccc(NC(=O)Nc3ccc(Cl)c(C(F)(F)F)c3)cc2)ccn1 [sorafenib]	–	sensitivity
